According to patent publication US7763585B2, “Methods for inhibiting tumor cell proliferation” (priority 2003, dated 2010):

Columns and labels:
[1] = tested on: Stat3; experiment: EMSA of nuclear extracts from treated cells with constitutively-activated Stat3; format: cell-based, mouse and human; conditions: Src-transformed fibroblasts and human tumor cells, FIG. 3
Experimental: FIG. 3 is a photograph showing the evaluation of effects of platinum complexes on Stat3 activation analyzed by EMSA. Nuclear extracts prepared from malignant cells that contain constitutively-activated Stat3 and treated with platinum complexes for the indicated times were analyzed by EMSA using hSIE oligonucleotide probe. Extracts were prepared from v-Src-transformed NIH3T3/v-Src; human breast carcinoma MDA-MB-231; MDA-MB-435; and […]. Position of Stat3:DNA complex in gel is shown.
Nuclear extracts were prepared from cell lines and used for EMSA as previously described (Turkson et al., 1998; Yu et al., 1995; Garcia et al., 1997). In some cases, cells were pre-treated with platinum complexes for the indicated times prior to harvesting. Where cells were stimulated with EGF (6 ng/ml), duration of treatment was 15 min. Nuclear extracts were pre-incubated with compounds for 30 min at room temperature prior to incubation with radiolabeled probe. The ^32P-radiolabeled oligonucleotide probes used are hSIE (high affinity sis-inducible element, m67 variant, 5′-[…]-3′) (SEQ ID NO:1) that binds both Stat1 and Stat3 (Garcia et al., 1997; Wagner et al., 1990), MGFe (mammary gland factor element from the bovine β-casein gene promoter, 5′-[…]-3′) (SEQ ID NO:2) that binds Stat1 and Stat5 (Gouilleux et al., 1995; Seidel et al., 1995), the NF-κB binding oligo (5′-[…]-3′) (SEQ ID NO:3), and the oligonucleotide sequence from the DHFR promoter that binds E2F1.
The effects of platinum complexes on persistent activation of Stat3 in Src-transformed fibroblasts and human tumor cells were investigated. […] These studies were then extended to evaluate the effects of the platinum complexes on Stat3 transcriptional activity.

[2] = tested on: B16 melanoma; experiment: Mouse model of melanoma tumor, intra-tumoral injection; format: in vivo; conditions: direct intra-tumoral injection, monitored up to 9 days, FIG. 8
Experimental: (§1) FIGS. 8A-C show tumor regression induced by platinum (IV) chloride. Tumor models in mice using B16 melanoma and CT26 colon tumors both of which harbor constitutively-active Stat3 were treated by intra-tumoral injection with doses of platinum (IV) chloride and tumor sizes monitored every other day for up to 9 days. FIG. 8A is a photograph showing extracted tumor tissues were analyzed for Stat3 activity in in vitro DNA-binding assays and EMSA analysis. FIG. 8B and FIG. 8C show tumor sizes monitored by calipers plotted against days of treatment.
(§2) The antitumor efficacy of platinum (IV) chloride of the invention using mouse models of melanoma and colon tumors was evaluated. Established tumors were directly injected with doses of platinum (IV) chloride and tumor size subsequently monitored. […] In parallel studies, treated tumors were extracted and Stat3 activity determined on the basis of DNA-binding activity analyzed by EMSA. […] Together, the findings support inhibition of constitutively-active STATs by platinum (IV) chloride leads to regression of melanoma and colon tumors.

[3] = biological target: T1, Stat3 (Mus musculus, UniProt P42227); experiment: Stat3 DNA-binding activity (EMSA) in extracted treated tumors; format: in vivo; conditions: FIG. 8A
T1 construct: from tissue; host or cells: extracted B16 melanoma / CT26 colon tumour tissue from mice
Experimental: as §1, §2

[4] = tested on: CT26 colon tumors; experiment: Mouse model of colon tumor, intra-tumoral injection; format: in vivo; conditions: direct intra-tumoral injection, monitored up to 9 days, FIG. 8
Experimental: as §1, §2

[5] = biological target: T2, Stat3:Stat3 (Mus musculus, UniProt P42227); experiment: EMSA, disruption of Stat3:Stat3 DNA-binding activity in vitro (hSIE probe); format: biochemical; conditions: for Level of DNA-binding activity of Stat3 (EMSA): EGF-stimulated fibroblast nuclear extracts, 30 min preincubation, FIG. 1A
T2 construct: endogenous in cells; host or cells: EGF-stimulated fibroblasts (nuclear extract)
Experimental: (§3) FIGS. 1A-D are photographs showing EMSA analyses of DNA-binding activities and effects of platinum complexes. Nuclear extracts containing activated Stat1, Stat3 and Stat5 are treated with the indicated concentrations of platinum complex ISSCPA-1, ISSCPA-3, ISSCPA-7, or PtCl4 for 30 min at room temperature prior to incubation with radiolabeled oligonucleotide probes. […] Positions of complexes of DNA with STAT, E2F1 or NFκB (p65, p50) in gel are labeled. Control lanes represent nuclear extracts that are not pre-incubated with platinum complexes.
(§4) Nuclear extracts were prepared from cell lines and used for EMSA as previously described (Turkson et al., 1998; Yu et al., 1995; Garcia et al., 1997). In some cases, cells were pre-treated with platinum complexes for the indicated times prior to harvesting. Where cells were stimulated with EGF (6 ng/ml), duration of treatment was 15 min. Nuclear extracts were pre-incubated with compounds for 30 min at room temperature prior to incubation with radiolabeled probe. The ^32P-radiolabeled oligonucleotide probes used are hSIE (high affinity sis-inducible element, m67 variant, 5′-[…]-3′) (SEQ ID NO:1) that binds both Stat1 and Stat3 (Garcia et al., 1997; Wagner et al., 1990), MGFe (mammary gland factor element from the bovine β-casein gene promoter, 5′-AGATTTCTAGGAATTCAA-3′) (SEQ ID NO:2) that binds Stat1 and Stat5 (Gouilleux et al., 1995; Seidel et al., 1995), the NF-κB binding oligo (5′-[…]-3′) (SEQ ID NO:3), and the oligonucleotide sequence from the DHFR promoter that binds E2F1.
(§5) Platinum compounds were evaluated for inhibitory activity against STAT DNA-binding in vitro.

[6] = tested on: Stat5; experiment: EMSA, Stat5 DNA-binding activity in vitro (MGFe probe); format: biochemical, mouse; conditions: FIG. 1B
Experimental: as §3, §4, §5

[7] = biological target: T3, Stat1:Stat1 (Mus musculus, UniProt P42225); experiment: EMSA, disruption of Stat1:Stat1 DNA-binding activity in vitro (hSIE probe); format: biochemical
T3 construct: endogenous in cells; host or cells: EGF-stimulated fibroblasts (nuclear extract)
T3 sequence (P42225 2-749 limits assumed): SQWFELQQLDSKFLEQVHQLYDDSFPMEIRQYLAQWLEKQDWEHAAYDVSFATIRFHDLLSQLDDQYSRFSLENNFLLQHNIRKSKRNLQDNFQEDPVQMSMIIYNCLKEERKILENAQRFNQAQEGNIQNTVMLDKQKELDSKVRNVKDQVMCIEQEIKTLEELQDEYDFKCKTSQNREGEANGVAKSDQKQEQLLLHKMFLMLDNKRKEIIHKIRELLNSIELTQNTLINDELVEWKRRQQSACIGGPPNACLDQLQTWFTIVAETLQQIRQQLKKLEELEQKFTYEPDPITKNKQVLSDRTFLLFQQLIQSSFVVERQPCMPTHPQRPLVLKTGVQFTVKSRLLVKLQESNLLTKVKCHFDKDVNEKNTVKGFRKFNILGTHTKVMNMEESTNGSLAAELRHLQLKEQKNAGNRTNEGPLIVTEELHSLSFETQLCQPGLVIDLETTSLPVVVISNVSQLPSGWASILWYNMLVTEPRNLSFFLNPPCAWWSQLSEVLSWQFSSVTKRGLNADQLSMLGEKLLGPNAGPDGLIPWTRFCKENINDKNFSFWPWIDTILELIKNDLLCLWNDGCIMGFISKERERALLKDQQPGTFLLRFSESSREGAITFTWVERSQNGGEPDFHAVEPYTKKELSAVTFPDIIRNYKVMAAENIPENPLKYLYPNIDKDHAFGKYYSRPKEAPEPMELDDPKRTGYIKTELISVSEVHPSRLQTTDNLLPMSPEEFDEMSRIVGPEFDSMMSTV
Experimental: as §3, §4, §5

[8] = biological target: T4, Stat1:Stat3 (Mus musculus, UniProt P42225+P42227); experiment: EMSA, disruption of Stat1:Stat3 DNA-binding activity in vitro (hSIE probe); format: biochemical
T4 construct: endogenous in cells; host or cells: EGF-stimulated fibroblasts (nuclear extract)
Experimental: as §3, §4, §5

T2 sequence (P42227 2-770 limits assumed): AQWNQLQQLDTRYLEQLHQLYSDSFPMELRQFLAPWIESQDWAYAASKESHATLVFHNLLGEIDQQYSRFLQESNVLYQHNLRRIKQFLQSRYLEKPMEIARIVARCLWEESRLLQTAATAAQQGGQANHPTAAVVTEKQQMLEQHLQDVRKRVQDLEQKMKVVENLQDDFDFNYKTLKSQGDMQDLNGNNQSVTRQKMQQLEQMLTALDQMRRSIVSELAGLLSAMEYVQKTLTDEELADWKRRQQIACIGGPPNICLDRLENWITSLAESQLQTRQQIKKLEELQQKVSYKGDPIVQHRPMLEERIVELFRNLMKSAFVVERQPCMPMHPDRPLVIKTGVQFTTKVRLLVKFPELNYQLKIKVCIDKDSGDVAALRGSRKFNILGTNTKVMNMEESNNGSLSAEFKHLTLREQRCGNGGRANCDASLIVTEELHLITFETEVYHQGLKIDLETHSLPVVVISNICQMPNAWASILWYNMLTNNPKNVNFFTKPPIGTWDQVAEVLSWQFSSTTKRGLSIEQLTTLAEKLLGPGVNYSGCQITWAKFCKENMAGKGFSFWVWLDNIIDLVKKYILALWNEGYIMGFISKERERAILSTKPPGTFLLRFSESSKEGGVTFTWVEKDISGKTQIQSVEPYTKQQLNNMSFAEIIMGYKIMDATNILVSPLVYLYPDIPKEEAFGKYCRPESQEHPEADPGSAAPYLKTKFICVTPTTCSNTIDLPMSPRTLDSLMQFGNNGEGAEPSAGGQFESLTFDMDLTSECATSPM
T4 sequence (P42227 2-770 limits assumed, one chain of several): as the sequence (P42227 2-770 limits assumed) above
T1 sequence (P42227 whole entry): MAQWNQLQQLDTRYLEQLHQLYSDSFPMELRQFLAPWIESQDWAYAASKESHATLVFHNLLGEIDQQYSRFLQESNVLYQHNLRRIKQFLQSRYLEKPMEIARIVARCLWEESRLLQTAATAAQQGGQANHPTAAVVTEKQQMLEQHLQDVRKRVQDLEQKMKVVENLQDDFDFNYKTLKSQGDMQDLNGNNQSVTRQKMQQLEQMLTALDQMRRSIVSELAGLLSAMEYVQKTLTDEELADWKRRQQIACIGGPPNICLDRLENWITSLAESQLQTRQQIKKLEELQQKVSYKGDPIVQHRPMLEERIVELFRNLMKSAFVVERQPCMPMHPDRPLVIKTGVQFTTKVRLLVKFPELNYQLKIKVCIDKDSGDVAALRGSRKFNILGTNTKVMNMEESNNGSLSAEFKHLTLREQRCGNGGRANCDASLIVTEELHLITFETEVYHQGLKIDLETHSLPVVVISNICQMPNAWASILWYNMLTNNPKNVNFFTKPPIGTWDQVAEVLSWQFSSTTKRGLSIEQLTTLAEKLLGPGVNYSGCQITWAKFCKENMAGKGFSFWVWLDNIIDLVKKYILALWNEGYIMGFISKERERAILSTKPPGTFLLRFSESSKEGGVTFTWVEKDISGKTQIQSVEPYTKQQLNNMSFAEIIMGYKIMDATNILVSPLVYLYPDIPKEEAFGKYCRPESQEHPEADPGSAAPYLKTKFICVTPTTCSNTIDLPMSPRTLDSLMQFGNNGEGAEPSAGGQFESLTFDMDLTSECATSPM

| SMILES | Inhibition of constitutive Stat3 activation in treated cells (EMSA of nuclear extracts) [1] | Tumor size, melanoma tumors [2] | Constitutively-active Stat3 in treated tumors (DNA-binding activity by EMSA) [3] | Tumor size, colon tumors [4] | Level of DNA-binding activity of Stat3 (EMSA) [5] | Inhibitory effect on Stat5 DNA-binding activity (EMSA) [6] | IC50 [7] [µM] | Level of DNA-binding activity of Stat1 (EMSA) ([7]; EGF-stimulated fibroblast nuclear extracts, 30 min preincubation, hSIE probe, FIG. 1A) | IC50 [8] [µM] | IC50 ([5]; nuclear extracts pre-incubated 30 min at room temperature, read-out: IC50 for disruption of STAT DNA-binding activity in vitro, Stat3:Stat3) [µM] |
| --- | --- | --- | --- | --- | --- | --- | --- | --- | --- | --- |
| N.N.[Cl][Pt][Cl] [Cisplatin, reference compound] | modest or negligible |  |  |  |  |  |  |  |  |  |
| [Cl][Pt]([Cl])([Cl])[Cl] [platinum (IV) chloride] |  | complete regression | strongly attenuated | complete regression | disrupts DNA-binding activity of Stat3 |  |  |  |  |  |
| [Cl][Pt]1([Cl])[NH]CC[NH]1 [ISS CPA-3] | modest or negligible |  |  |  | dose-dependent reduction | much reduced inhibitory effect | 8.3 | dose-dependent reduction | 27 | 5.8 |
